# Reference: article PMC7614683, “A small molecule PI3Kα activator for cardioprotection and neuroregeneration” (Nature, 2023)
# Several values for one entry are separate records, joined by “and”; a condition that tells them apart may be missing. Equal values may be shown once. Read-outs that look alike come from different tables or passages of the source.
# Key:
# [1] = tested on: mouse heart; assay: In vivo model of ischaemia reperfusion injury in mice; details: 10 mg/kg 1938 i.v., heart after 15 min; single mice
# [2] = target: T1, full length p110α/p85α (Homo sapiens, UniProt P42336); assay: Surface plasmon resonance; assay type: binding; details: immobilized p110α/p85α; read-out: Kd for PI3Kα by surface plasmon resonance
# T1 construct: Full-length human p110α was expressed either in a complex with full-length human p85α (for HTS, biochemistry and HDX-MS); 6xHis tag followed by TEV protease site (N); host or cells: Spodoptera frugiperda Sf9, baculovirus
# T1 sequence (P42336 whole entry): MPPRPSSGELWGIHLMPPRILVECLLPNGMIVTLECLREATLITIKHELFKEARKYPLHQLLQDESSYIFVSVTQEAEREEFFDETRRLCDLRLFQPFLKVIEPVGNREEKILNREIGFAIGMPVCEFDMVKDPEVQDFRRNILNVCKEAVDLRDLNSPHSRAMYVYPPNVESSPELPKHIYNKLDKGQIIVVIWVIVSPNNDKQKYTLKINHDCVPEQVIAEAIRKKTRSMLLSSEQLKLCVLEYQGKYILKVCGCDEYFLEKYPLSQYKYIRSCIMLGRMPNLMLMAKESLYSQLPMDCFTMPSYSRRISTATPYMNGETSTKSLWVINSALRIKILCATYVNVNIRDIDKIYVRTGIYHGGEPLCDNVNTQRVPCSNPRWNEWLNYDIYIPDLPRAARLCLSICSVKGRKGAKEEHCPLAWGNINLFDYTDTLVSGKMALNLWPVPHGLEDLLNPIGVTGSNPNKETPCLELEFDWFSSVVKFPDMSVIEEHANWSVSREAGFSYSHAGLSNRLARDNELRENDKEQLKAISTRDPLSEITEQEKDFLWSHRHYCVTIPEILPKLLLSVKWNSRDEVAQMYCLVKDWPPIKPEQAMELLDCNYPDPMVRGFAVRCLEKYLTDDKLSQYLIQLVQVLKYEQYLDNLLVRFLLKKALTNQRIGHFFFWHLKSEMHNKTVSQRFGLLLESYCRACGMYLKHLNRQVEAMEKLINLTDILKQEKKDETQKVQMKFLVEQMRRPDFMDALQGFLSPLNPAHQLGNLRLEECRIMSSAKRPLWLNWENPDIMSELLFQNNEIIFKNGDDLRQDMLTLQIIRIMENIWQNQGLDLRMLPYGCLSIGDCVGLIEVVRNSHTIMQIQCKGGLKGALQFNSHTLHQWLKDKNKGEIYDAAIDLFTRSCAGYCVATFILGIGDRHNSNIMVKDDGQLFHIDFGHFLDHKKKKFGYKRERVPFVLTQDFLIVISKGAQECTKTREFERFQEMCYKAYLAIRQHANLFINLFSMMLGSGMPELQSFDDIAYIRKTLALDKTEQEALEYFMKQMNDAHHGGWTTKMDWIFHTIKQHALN
# T1 sequence (P27986 whole entry partner): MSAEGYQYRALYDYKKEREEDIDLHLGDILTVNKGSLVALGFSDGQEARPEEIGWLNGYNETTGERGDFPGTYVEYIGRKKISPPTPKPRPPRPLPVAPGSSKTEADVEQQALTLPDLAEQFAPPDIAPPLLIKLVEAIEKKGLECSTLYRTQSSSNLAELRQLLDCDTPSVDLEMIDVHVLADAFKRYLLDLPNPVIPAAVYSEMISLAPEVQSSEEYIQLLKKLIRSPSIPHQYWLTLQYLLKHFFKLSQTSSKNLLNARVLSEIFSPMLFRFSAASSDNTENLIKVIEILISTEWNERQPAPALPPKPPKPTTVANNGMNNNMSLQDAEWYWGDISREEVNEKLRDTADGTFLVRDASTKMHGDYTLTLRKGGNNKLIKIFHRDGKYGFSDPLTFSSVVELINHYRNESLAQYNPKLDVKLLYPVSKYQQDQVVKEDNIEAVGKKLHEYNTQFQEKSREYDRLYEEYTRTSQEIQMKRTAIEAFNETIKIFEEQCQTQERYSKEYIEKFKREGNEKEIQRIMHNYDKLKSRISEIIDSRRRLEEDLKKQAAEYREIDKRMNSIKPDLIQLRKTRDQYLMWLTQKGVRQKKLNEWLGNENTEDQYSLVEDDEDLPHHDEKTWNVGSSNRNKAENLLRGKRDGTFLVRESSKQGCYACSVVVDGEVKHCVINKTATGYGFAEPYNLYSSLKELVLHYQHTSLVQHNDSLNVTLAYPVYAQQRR
# Procedure: SPR was performed with a Biacore T200, using CM7-sensor chips (Cytiva). Both reference control and analyte channels were equilibrated in HBS-P (Cytiva) supplemented with 5% (v/v) DMSO at 20°C. Full length p110α/p85α was immobilised onto the chip surface via amide coupling using the supplied kit (Cytiva) to reach an RU value of approximately 25,000 RU. Serial dilutions (1:2) of 1938 starting from 500 μM were injected over the chip for 60 s at 30 μL/min, with a 60 sec dissociation time. The data were double-referenced to the response on a blank but similarly modified flow channel and a buffer-only injection was subtracted. Any differences in the DMSO concentrations between the sample and buffer were corrected using the in-built solvent correction protocol. After reference and buffer signal correction, sensogram data were fitted using Prism 9.4.1 (GraphPad Software Inc). The responses at equilibrium (Req) of the were then fitted to a 1:1 binding model with a linear non-specific phase to determine Kd: (1) Req=(CRmax/C+Kd)+DC+B where C is the analyte concentration and Rmax is the maximum response at saturation, D is a non-specific response and B is the background resonance. Data were replotted correcting for the linear non-specific response. The binding was performed in triplicate.
# [3] = target: T2, human p110α/p85α (PI3Kα) (Homo sapiens, UniProt P42336); assay: ADP-Glo in vitro lipid kinase assay, PI3Kα; assay type: biochemical
# T2 construct: Full-length human p110α was expressed either in a complex with full-length human p85α (for HTS, biochemistry and HDX-MS); 6xHis tag followed by TEV protease site (N); host or cells: Spodoptera frugiperda Sf9, baculovirus
# T2 sequence (P42336 whole entry): as the sequence (P42336 whole entry) above
# T2 sequence (P27986 whole entry partner): as the sequence (P27986 whole entry partner) above
# Procedure: Kinase reactions were performed with ADP-Glo kinase assay kit (Promega Corporation). The enzyme, substrate and compounds were diluted in reaction buffer (20 mM HEPES, 50 mM NaCl, 50 mM KCl, 3 mM MgCl2, 1 mM EGTA, 1 mM TCEP, pH 7.4). Final concentrations of PI3Kα and PI3Kδ used were 25 nM and 50 nM for PI3Kβ. Liposomes (5% brain PI(4,5)P2, 20% brain phosphatidylserine, 45% brain phosphatidylethanolamine, 15% brain phosphatidylcholine, 10% cholesterol, 5% sphingomyelin (Avanti Polar Lipids)) were used at a final concentration of 1 mg/ml.
# For the HTS, the reaction mixture contained 0.75 μl enzyme, 15 nl compound and/or pY and 0.75 μl of liposome substrate mixed with ATP. […] (GL Biochem, Shanghai Ltd). ATP was used at a final concentration of 500 μM unless otherwise stated. The final DMSO concentration in the assay was 1%. The experiments were performed at room temperature for 3 h using 1536-well white-polystyrene plates (Corning #3729) before addition of 2 μl of ADP-Glo R1 to terminate the reaction. The plate was incubated for 40 min, followed by addition of 4 μl of ADP-Glo R2 and incubated further for 60 min in the dark. Luminescence was read using an EnVision (PerkinElmer) plate reader. All analyses were performed using Genedata Screener.
# For re-screening of HTS hits and routine compound profiling, the reaction mixture contained 2 μl PI3K enzyme, 2 μl compound and/or pY and 2 μl of liposome substrate mixed with ATP. ATP was used at a final concentration of 500 μM for PI3Kα and PI3Kβ and at 200 μM for PI3Kδ, unless otherwise stated. The final DMSO concentration in the assay was 1%. The experiments were performed at room temperature for 3 h using 384 white-polystyrene plates (Corning #3824) before addition of 6 μl of ADP-Glo R1 to terminate the reaction. The plate was incubated for 45 min, followed by addition of 12 μl of ADP-Glo R2 and incubated further for 60 min in the dark. Luminescence was read using a Sense (Hidex) plate reader. […] All analyses were performed using GraphPad Prism 7.
# For characterisation of the effects of 1938 on in vitro PI3K enzymology, all reactions were performed at room temperature with 384 white-polystyrene plates (Corning #3574). The final DMSO concentration in the assay was between 0.5%-1.8%. The reaction mixture contained 2 μl PI3K enzyme, 2 μl compound and/or pY and 2 μl of liposome substrate mixed with ATP. ATP was used at a final concentration of 200 μM, unless otherwise stated.
structure (smiles),measurement,setting,value
CCN1CCN(c2ccc(Nc3cc(Nc4cccc5c4N(C(C)=O)CC5)ccn3)cc2)CC1 [Compound 1938],Western blot pAkt in vivo: pAkt/tAkt,[1],7.58 and 5.35 and 5.18
same,Kd,[2],36 ± 5 µM
same,activation of PI3Kα,[3],activates
same,PI3Kα activation in combination with pY,[3]; 1938 with a saturating concentration of pY,synergistic PI3Kα activation
same,Maximum activity relative to 1938,[3]; SI Table 3,100%
same,EC50,"[3]; SI Table 3, 1938 analogues, read-out: EC50",58 ± 28 µM
same,EC50,[3]; read-out: EC50 for PI3Kα (in vitro lipid kinase activity),~60 µM
